The nature of the series: Plasma pharmacokinetics of TP-0903 and metabolites (LC-MS/MS, noncompartmental analysis). The class given is in vivo, human. The note with it: for Pre-treatment trough / Cmax / Tmax / AUC(0-t) / concentration at 24 h: median (range); for Cmax / Tmax / AUC(0-t) / concentration at 24 h: human, plasma, oral; for AUC(0-t): read-out: AUC0-24h; for concentration at 24 h: read-out: C24h trough. The method, then:
On days 1 and 10 of cycle 1, plasma samples were collected for PK analysis from a total of 25 patients. In the phase 1b study portion of the study, plasma was collected before administration of TP-0903 on day 10 and at 0.5, 1, 2, 4, 8, and 24 hours after administration of TP-0903 on days 1 and 10. In the phase 2 portion of the study, plasma was collected at 2, 4, and 24 hours after drug administration. A validated ultrahigh-performance LC-MS/MS method was developed and used to quantify TP-0903 and its four major metabolites (M2, M3, M4, and M6) in plasma.
TP-0903 and its metabolites M2, M3, M4, and M6 were quantified in plasma using solid phase extraction and LC-MS/MS in the Ohio State University Comprehensive Cancer Center Pharmacoanalytical Shared Resource. See Supplementary Methods for details.
Sample preparation comprised 200 µL of K2EDTA plasma sample combined with 5 µL of 150 ng/mL internal standard mixture (TP-0903-d8 (NSN23293), M2-d8 (NSN23290), M3-d8 (NSN23292), M4-d8 (NSN23291), and M6-d8 (NSN23296)), 50 µL deionized (DI) water, and 50 µL of methanol in the wells of a 2-mL 96-well plate. Reference standards for TP-0903 (ditartrate salt), metabolites, and internal standards were obtained from Sumitomo Pharma America, Inc. (formerly Sumitomo Pharma Oncology, Inc.). Sample preparation was followed by shaking at 500 rpm for 5 minutes at room temperature and the addition of 1 mL of 0.1M sodium carbonate (791768-500G). After centrifugation at 3095 rcf for 10 minutes, 1 mL of supernatant was loaded onto a conditioned 30 mg HLB SPE plate (conditioning included 1 mL methanol flow through followed by 1 mL water flow through). After samples were loaded and passed through the SPE plate using a vacuum, the plate was washed with 1 mL DI water. Once the water passed through, analyte elution was done by loading 1 mL 2% formic acid in methanol, followed by drying with N2 gas heated to 40 °C. Once dried, they were resuspended with 100 µL reconstitution solution (22% acetonitrile, 22% methanol, 56% DI water, 0.5 mM ammonium acetate, and 0.2% formic acid). The chromatographic method utilized a gradient elution with mobile phase A (MPA; 15% acetonitrile, 15% methanol, 70% DI water, 0.5 mM ammonium acetate, and 0.2% formic acid) and mobile phase B (MPB; 45% acetonitrile, 45% methanol, 10% DI water, 0.5 mM ammonium acetate (09689-100G), and 0.2% formic acid (F0441-32)). The flow rate begins at 0.4 mL/min with 25% MPB, at 2.5 min the flow rate increased to 0.6 mL/min, at 5.5 minutes the %MPB increased to 100%, at 7.01 min the flow rate and %MPB decreased to 0.4 mL/min and 25%, respectively, until the end of the run. This method was run using an ACE Excel SuperC18 (3.0 x 75 mm, 5 µm, 90Å) column (EXL-1211-7503) with a ThermoFisher Scientific Vanquish™ – ThermoFisher Scientific (SCR_025713) TSQ Altis LC-MS/MS system (TSQ02-10002). The analytes and internal standards were evaluated in positive mode with the transitions monitored including M2 488.12->402.125, M2-d8 496.25->402.095, M3 502.2->402.113, M3-d8 510.2->402.113, M4 502.138->416.125, M4-d8 510.188->416.125, M6 518.112->402, M6-d8 526.2->402.113, and TP-0903 516.2->416.125, TP-0903-d8 524.237->416.125. […] Three quality control samples (QC Low, QC Medium, and QC High) were monitored during sample analyses to ensure the accuracy of assay quantitation. Additionally, a validation was performed that included the evaluation of selectivity, matrix effects, sensitivity, carry-over, freeze-thaw stability, processed sample stability, recovery, and dilution integrity (20X and 10X). Intra- and inter- day accuracy and precision of the calibrators and quality control samples, which also included the LLOQ for each analyte, was evaluated over 3 days. The quality control samples concentrations were continually monitored by statistical analysis of runs using Westgard rules (13s, 22s, R4s, and 10x) and adherence to FDA guidance of being within 15% except at the LLOQ of being within 20%. […]

Setting [1] is: TP-0903 dose 25mg, Day 10 of course 1, plasma.
[2] abbreviates: TP-0903 dose 37 mg, Day 10 of course 1, plasma.
Where [3] appears, read: 25 mg, TP-0903 dose 25mg, Day 1 of course 1, plasma.
[4] abbreviates: 25 mg, TP-0903 dose 25mg, Day 10 of course 1, plasma.
The mark [5] stands for this setting: 37 mg, TP-0903 dose 37 mg, Day 1 of course 1, plasma.
The mark [6] stands for this setting: 37 mg, TP-0903 dose 37 mg, Day 10 of course 1, plasma.

Like-named read-outs stand apart in the source and are kept apart here.

In the case of `CN1CCN(Cc2ccc(Nc3ncc(Cl)c(Nc4ccccc4S(=O)(=O)N(C)C)n3)cc2)CC1.O=C(O)C(O)C(O)C(=O)O.O=C(O)C(O)C(O)C(=O)O` [TP-0903, 2-(5-chloro-2-(4-((4-methylpiperazin-1-yl)methyl)phenylamino)pyrimidin-4-yl)amino-N,N-dimethylbenzene-1-sulfonamide di-tartrate salt], for the setting “Supplementary Fig. S3A”, the “Steady-state TP-0903 plasma exposure (Css Min on Day 10), responders vs non-responders” value is given as “no significant difference”. For the same compound, the “Decrease in absolute neutrophil count or platelets in patients with steady-state plasma exposure above the median” value (Supplementary Fig. S3B, S3C) is “did not have a greater decrease”. The Pre-treatment trough under setting [1] is given as 7.1 (3.3-17) ng/mL and the Pre-treatment trough under setting [2] is 5.3 (1.0-21) ng/mL. Besides, the Drug accumulation ratio entry (based on the median AUC, day 10 vs day 1, both groups) is “six”. Under “both groups (37 mg and 25 mg)”, the “Variation in the steady-state Cmax of parent TP-0903” value is recorded as more than 25 fold. Besides, the Cmax is, setting by setting: under setting [3], 2.4 ng/mL; under setting [4], 14 ng/mL; under setting [5], 3.3 ng/mL; under setting [6], 13 ng/mL. The Tmax is, setting by setting: under setting [3], 2.8 h; under setting [4], 3.5 h; under setting [5], 2.1 h; under setting [6], 3.9 h. Moreover, the AUC(0-t) is, setting by setting: (25 mg, TP-0903 dose 25mg, Day 1 of course 1, plasma, N=11) 42 ng·h/mL; (25 mg, TP-0903 dose 25mg, Day 10 of course 1, plasma, N=8) 260 ng·h/mL; (37 mg, TP-0903 dose 37 mg, Day 1 of course 1, plasma, N=10) 36 ng·h/mL; (37 mg, TP-0903 dose 37 mg, Day 10 of course 1, plasma, N=9) 210 ng·h/mL. The concentration at 24 h amounted to 1.9 ng/mL (TP-0903 dose 25mg, Day 1 of course 1, plasma); 8.1 ng/mL under setting [1]; 0.7 ng/mL (TP-0903 dose 37 mg, Day 1 of course 1, plasma); 5.8 ng/mL under setting [2].

Source of the values: paper PMC12257073 (Cancer Research Communications, 2025).
